Assay results as given in ChEMBL document CHEMBL1201862, “PubChem BioAssay data set” (2004).
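Each compound was tested at five concentrations against cells in 96-well plates for 48 hours. The concentration for 50% growth inhibition is given as GI50.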 The source made the active and inactive calls. No stated cut-off is given here; in the data, active = GI50 up to about 1.1 µM and inactive = higher.

How the values were obtained:
Assay in all cases: inhibition of tumour cell growth, NCI panel, 48 h
[1] = tested on: SNB-19
[2] = tested on: KM12
[3] = tested on: OVCAR-5
[4] = tested on: NCI-H226
[5] = tested on: U-251
[6] = tested on: SW-620
[7] = tested on: HOP-92
[8] = tested on: UACC-62
[9] = tested on: SNB-75
[10] = tested on: SK-MEL-2
[11] = tested on: HCC 2998
[12] = tested on: OVCAR-3
[13] = tested on: SN12C
[14] = tested on: A498
[15] = tested on: LOX IMVI
[16] = tested on: Malme-3M
[17] = tested on: OVCAR-8
[18] = tested on: TK-10

Measured: GI50

OCCCCCNc1ccnc2cc(Cl)ccc12
inactive: [1] > 100 µM | [2] > 100 µM | [3] 83.2 µM | [4] 74.5 µM | [5] > 100 µM | [6] > 100 µM | [7] > 100 µM | [8] > 100 µM | [9] > 100 µM | [10] > 100 µM | [11] > 100 µM | [12] 65.5 µM | [13] > 100 µM | [14] > 100 µM | [15] > 10 µM | [16] > 100 µM | [17] 64.1 µM

COc1cc(Nc2nc3cc(C(F)(F)F)ccc3nc2-c2ccccc2)cc(OC)c1OC
inactive: [2] > 100 µM | [3] > 100 µM | [4] > 100 µM | [5] 57.4 µM | [6] > 100 µM | [7] 1.82 µM | [8] 75.2 µM | [18] 30.5 µM | [9] 39.7 µM | [10] > 100 µM | [11] > 100 µM | [12] 73.3 µM | [13] > 100 µM | [14] > 100 µM | [15] > 100 µM | [16] > 100 µM | [17] > 100 µM

C#CCN(N=O)C(=O)NC(CCCNC(=O)OCc1ccccc1)C(=O)OCc1ccccc1 (stereo not drawn)
inactive: [1] > 100 µM | [2] > 100 µM | [3] > 100 µM | [4] > 100 µM | [5] > 100 µM | [6] 55.8 µM | [7] 30.9 µM | [8] > 100 µM | [18] > 100 µM | [9] > 100 µM | [10] > 100 µM | [11] > 100 µM | [12] > 100 µM | [13] > 100 µM | [14] > 100 µM | [15] 52.4 µM | [16] > 100 µM | [17] 43.4 µM

CCN1C(=O)/C(=C\c2coc3ccccc3c2=O)SC1=S
inactive: [1] > 100 µM | [2] > 100 µM | [3] > 100 µM | [4] > 100 µM | [5] 28.3 µM | [6] 49.4 µM | [7] > 100 µM | [8] 68.7 µM | [18] > 100 µM | [9] 41.2 µM | [10] > 100 µM | [11] > 100 µM | [12] > 100 µM | [13] > 100 µM | [14] > 100 µM | [15] 42.1 µM | [16] > 100 µM | [17] > 100 µM

Cc1c2ncccc2c(C)c2c1[nH]c1ccccc12
inactive: [1] 13.8 µM | [2] 10.3 µM | [3] 14.1 µM | [4] 12.7 µM | [5] 12.2 µM | [6] 6.79 µM | [7] 7.98 µM | [8] 15.3 µM | [18] 17.7 µM | [9] 10.6 µM | [10] 22.9 µM | [11] 12.3 µM | [12] 14.3 µM | [13] 11.5 µM | [14] 12.5 µM | [15] 5.66 µM | [16] 15.1 µM | [17] 10.5 µM

O=Cc1cc2sc(C=O)cc2s1
inactive: [1] > 100 µM | [2] > 100 µM | [3] > 100 µM | [4] 26.1 µM | [5] > 100 µM | [6] > 100 µM | [7] > 100 µM | [8] 40.6 µM | [18] > 100 µM | [9] > 100 µM | [11] > 100 µM | [12] > 100 µM | [13] > 100 µM | [14] 17.7 µM | [15] > 100 µM | [16] > 100 µM | [17] > 100 µM

CC1=NC(C(C)C)C(=O)O1 (stereo not drawn)
inactive: [1] > 100 µM | [2] > 100 µM | [3] > 100 µM | [4] > 100 µM | [5] > 100 µM | [6] 13.1 µM | [7] > 100 µM | [8] > 100 µM | [18] > 100 µM | [9] > 100 µM | [11] > 100 µM | [12] > 100 µM | [13] > 100 µM | [14] > 100 µM | [16] > 100 µM | [17] > 100 µM

Cc1ccc2ccc(-c3ccccc3)c3c2c1C(=O)c1ccccc1C3=O
inactive: [1] 64.1 µM | [2] > 100 µM | [3] > 100 µM | [4] > 100 µM | [5] > 100 µM | [6] > 100 µM | [7] 26.1 µM | [8] 92.7 µM | [18] > 100 µM | [9] 18.3 µM | [10] > 100 µM | [11] > 100 µM | [12] 71.8 µM | [13] > 100 µM | [14] 74 µM | [15] > 100 µM | [16] > 100 µM | [17] 72.4 µM

CN1C(c2ccccc2)CC(=O)C(N)C1c1ccccc1 (stereo not drawn)
inactive: [1] 56.9 µM | [2] 23.9 µM | [3] 35.4 µM | [4] 39.4 µM | [5] 21.4 µM | [6] 19.9 µM | [7] 25.8 µM | [8] 27.2 µM | [18] 43.7 µM | [9] 63.5 µM | [10] 19.4 µM | [11] 20.8 µM | [12] 33.7 µM | [13] 34.7 µM | [14] > 67.6 µM | [15] 18 µM | [16] 22.1 µM | [17] 26.8 µM

CCCCCCCC/C=C1\CCC(CN(C)C)C1=O (stereo not drawn)
inactive: [1] 16.7 µM | [2] 2.31 µM | [3] 20.2 µM | [4] 22.3 µM | [5] 2.14 µM | [6] 3.33 µM | [7] 3.33 µM | [8] 7.41 µM | [18] 2.54 µM | [9] 5.25 µM | [10] 12 µM | [11] 9.57 µM | [12] 7.18 µM | [13] 4.02 µM | [14] 16.5 µM | [15] 1.92 µM | [16] 3.18 µM | [17] 3.23 µM

O=C1C2C3C=CC(C2C(=O)N1COP(=O)(O)O)C1C2C(=O)N(COP(=O)(O)O)C(=O)C2C31 (stereo not drawn)
inactive: [1] > 100 µM | [2] > 100 µM | [3] > 100 µM | [4] > 100 µM | [5] > 70.5 µM | [6] > 45.7 µM | [7] > 100 µM | [8] > 100 µM | [18] > 100 µM | [9] > 100 µM | [10] > 100 µM | [11] > 100 µM | [12] > 100 µM | [13] > 74.3 µM | [14] > 100 µM | [15] > 43.4 µM | [16] > 100 µM | [17] > 100 µM
